Data published in patent publication US11319299B2, “Substituted carboxamides as inhibitors of WDR5 protein-protein binding” (PROPELLON THERAPEUTICS INC., priority 2016, dated 2022).

Target: WDR5 (Homo sapiens (Human), UniProt P61964)
Experiment: Surface Plasmon Resonance (SPR) assay, KD and residence time
Type: binding
Conditions: surface plasmon resonance (SPR) assay; read-out: WDR5 binding affinity (KD)

| SMILES | Kd |
| --- | --- |
| COc1cc(Cl)cc(C(=O)Nc2cc(-c3cnc(N4CCOCC4)nc3)c(F)cc2N2C[C@@H](C)N(C)[C@@H](C)C2)c1 [Example 265, 3-chloro-N-[4-fluoro-5-(2-morpholin-4-ylpyrimidin-5-yl)-2-[(3R,5S)-3,4,5-trimethylpiperazin-1-yl]phenyl]-5-methoxybenzamide] | 28.3 nM |
| C[C@@H]1CN(c2cc(F)c(-c3cnc(N4CCOCC4)nc3)cc2NC(=O)c2ccc(F)c(Cl)c2F)C[C@H](C)N1C [Example 266, 3-chloro-2,4-difluoro-N-[4-fluoro-5-(2-morpholin-4-ylpyrimidin-5-yl)-2-[(3R,5S)-3,4,5-trimethylpiperazin-1-yl]phenyl]benzamide] | 13.7 nM |
| C[C@@H]1CN(c2cc(F)c(C3=CCN(C)CC3)cc2NC(=O)c2c[nH]c(=O)cc2C(F)(F)F)C[C@H](C)N1C [Example 267, N-[4-fluoro-5-(1-methyl-3,6-dihydro-2H-pyridin-4-yl)-2-[(3R,5S)-3,4,5-trimethylpiperazin-1-yl]phenyl]-6-oxo-4-(trifluoromethyl)-1H-pyridine-3-carboxamide] | 10.7 nM |
| Cc1cc(C#N)ncc1-c1cc(NC(=O)c2c[nH]c(=O)cc2C(F)(F)F)c(N2C[C@@H](C)N(C)[C@@H](C)C2)cc1F [Example 269, N-[5-(6-cyano-4-methylpyridin-3-yl)-4-fluoro-2-[(3R,5S)-3,4,5-trimethylpiperazin-1-yl]phenyl]-6-oxo-4-(trifluoromethyl)-1H-pyridine-3-carboxamide] | 8.74 nM |
| CNC1CCN(c2cc(F)c(-c3cnc(N4CCOCC4)nc3)cc2NC(=O)c2c[nH]c(=O)cc2C(F)(F)F)C1 (stereo not shown) [Example 277, N-[4-fluoro-2-[3-(methylamino)pyrrolidin-1-yl]-5-(2-morpholin-4-ylpyrimidin-5-yl)phenyl]-6-oxo-4-(trifluoromethyl)-1H-pyridine-3-carboxamide] | 14.9 nM |
| C[C@@H]1CN(c2cc(F)c(-c3cnc(N4CCOCC4)nc3)cc2NC(=O)c2cccc(O)c2)C[C@H](C)N1C [Example 281, N-[4-fluoro-5-(2-morpholin-4-ylpyrimidin-5-yl)-2-[(3R,5S)-3,4,5-trimethylpiperazin-1-yl]phenyl]-3-hydroxybenzamide] | 29.1 nM |
| CN(C)[C@@H]1CCN(c2cc(F)c(-c3cnc(N4CCOCC4)nc3)cc2NC(=O)c2cn(C)nc2C(F)(F)F)C1 [Example 283, N-[4-fluoro-5-(2-morpholin-4-ylpyrimidin-5-yl)-2-[(3R)-3-(dimethylamino)pyrrolidin-1-yl]phenyl]-1-methyl-3-(trifluoromethyl)pyrazole-4-carboxamide] | 14.8 nM |
| C[C@@H]1CN(c2cc(F)c(C3=CCN(C(=O)Oc4ccccc4)CC3)cc2NC(=O)c2c[nH]c(=O)cc2C(F)(F)F)C[C@H](C)N1C [Example 288, phenyl 4-[2-fluoro-5-[[6-oxo-4-(trifluoromethyl)-1H-pyridine-3-carbonyl]amino]-4-[(3R,5S)-3,4,5-trimethylpiperazin-1-yl]phenyl]-3,6-dihydro-2H-pyridine-1-carboxylate] | 1.11 nM |
| C[C@@H]1CC(N2CC=C(c3cc(NC(=O)c4c[nH]c(=O)cc4C(F)(F)F)c(N4C[C@@H](C)N(C)[C@@H](C)C4)cc3F)CC2)C[C@H](C)O1 (stereo partly drawn) [Example 289, N-[4-fluoro-5-[1-[(2R,6S)-2,6-dimethyloxan-4-yl]-3,6-dihydro-2H-pyridin-4-yl]-2-[(3S,5R)-3,4,5-trimethylpiperazin-1-yl]phenyl]-6-oxo-4-(trifluoromethyl)-1H-pyridine-3-carboxamide] | 3.74 nM |
| C[C@@H]1CN(c2cc(F)c(-c3cnc(N4CCOCC4)nc3)cc2NC(=O)c2ccc(O)cc2C(F)(F)F)C[C@H](C)N1C [Example 290, N-[4-fluoro-5-(2-morpholin-4-ylpyrimidin-5-yl)-2-[(3R,5S)-3,4,5-trimethylpiperazin-1-yl]phenyl]-4-hydroxy-2-(trifluoromethyl)benzamide] | 8.9 nM |
| C[C@@H]1CN(c2cc(F)c(-c3cnc(N4CCOCC4)nc3)cc2NC(=O)c2cc(O)cc(F)c2F)C[C@H](C)N1C [Example 291, 2,3-difluoro-N-[4-fluoro-5-(2-morpholin-4-ylpyrimidin-5-yl)-2-[(3R,5S)-3,4,5-trimethylpiperazin-1-yl]phenyl]-5-hydroxybenzamide] | 4.21 nM |
| C[C@@H]1CN(c2cc(F)c(-c3ccnc(OCC4CCC4)c3)cc2NC(=O)c2c[nH]c(=O)cc2C(F)(F)F)C[C@H](C)N1C [Example 292, N-[5-[2-(cyclobutylmethoxy)pyridin-4-yl]-4-fluoro-2-[(3R,5S)-3,4,5-trimethylpiperazin-1-yl]phenyl]-6-oxo-4-(trifluoromethyl)-1H-pyridine-3-carboxamide] | 4.32 nM |
| C[C@@H]1CN(c2cc(F)c(-c3cnc(N4CCOCC4)nc3)cc2NC(=O)c2cccc(F)c2C(F)(F)F)C[C@H](C)N1C [Example 295, 3-fluoro-N-[4-fluoro-5-(2-morpholin-4-ylpyrimidin-5-yl)-2-[(3R,5S)-3,4,5-trimethylpiperazin-1-yl]phenyl]-2-(trifluoromethyl)benzamide] | 11.1 nM |

Continued by falling Kd, values first:

| Kd | SMILES |
| --- | --- |
| 3.12 nM | C[C@@H]1CN(c2cc(F)c(-c3cnc(N4CCOCC4)nc3)cc2NC(=O)c2cc(O)cc(C(F)(F)F)c2)C[C@H](C)N1C [Example 280, N-[4-fluoro-5-(2-morpholin-4-ylpyrimidin-5-yl)-2-[(3R,5S)-3,4,5-trimethylpiperazin-1-yl]phenyl]-3-hydroxy-5-(trifluoromethyl)benzamide] |
| 3 nM | C[C@@H]1CN(c2cc(F)c(-c3ccnc(OCC(C)(C)C)c3)cc2NC(=O)c2c[nH]c(=O)cc2C(F)(F)F)C[C@H](C)N1C [Example 293, N-[5-[2-(2,2-dimethylpropoxy)pyridin-4-yl]-4-fluoro-2-[(3R,5S)-3,4,5-trimethylpiperazin-1-yl]phenyl]-6-oxo-4-(trifluoromethyl)-1H-pyridine-3-carboxamide] |
| 2.24 nM | CCN(CC)c1ncc(-c2cc(NC(=O)c3c[nH]c(=O)cc3C(F)(F)F)c(N3C[C@@H](C)N(C)[C@@H](C)C3)cc2F)cn1 [Example 294, N-[5-[2-(diethylamino)pyrimidin-5-yl]-4-fluoro-2-[(3R,5S)-3,4,5-trimethylpiperazin-1-yl]phenyl]-6-oxo-4-(trifluoromethyl)-1H-pyridine-3-carboxamide] |
| 1.98 nM | C[C@@H]1CN(c2cc(F)c(-c3cnc(N4CCOCC4)nc3)cc2NC(=O)c2c(O)cnc3ccccc23)C[C@H](C)N1C [Example 282, N-[4-fluoro-5-(2-morpholin-4-ylpyrimidin-5-yl)-2-[(3R,5S)-3,4,5-trimethylpiperazin-1-yl]phenyl]-3-hydroxyquinoline-4-carboxamide] |
| 1.67 nM | CCOC(=O)c1ccnc(N2CC=C(c3cc(NC(=O)c4c[nH]c(=O)cc4C(F)(F)F)c(N4C[C@@H](C)N(C)[C@@H](C)C4)cc3F)CC2)n1 [Example 276, ethyl 2-[4-[2-fluoro-5-[[6-oxo-4-(trifluoromethyl)-1H-pyridine-3-carbonyl]amino]-4-[(3R,5S)-3,4,5-trimethylpiperazin-1-yl]phenyl]-3,6-dihydro-2H-pyridin-1-yl]pyrimidine-4-carboxylate] |
| 1.54 nM | C[C@@H]1CN(c2cc(F)c(C3=CCN(c4ncc(Cl)cn4)CC3)cc2NC(=O)c2c[nH]c(=O)cc2C(F)(F)F)C[C@H](C)N1C [Example 275, N-[5-[1-(5-chloropyrimidin-2-yl)-3,6-dihydro-2H-pyridin-4-yl]-4-fluoro-2-[(3R,5S)-3,4,5-trimethylpiperazin-1-yl]phenyl]-6-oxo-4-(trifluoromethyl)-1H-pyridine-3-carboxamide] |
| 1.39 nM | C[C@@H]1CN(c2cc(F)c(C3=CCN(C(=O)N4CCN(C)CC4)CC3)cc2NC(=O)c2c[nH]c(=O)cc2C(F)(F)F)C[C@H](C)N1C [Example 287, N-[4-fluoro-5-[1-(4-methylpiperazine-1-carbonyl)-3,6-dihydro-2H-pyridin-4-yl]-2-[(3R,5S)-3,4,5-trimethylpiperazin-1-yl]phenyl]-6-oxo-4-(trifluoromethyl)-1H-pyridine-3-carboxamide] |
| 1.18 nM | C[C@@H]1CN(c2cc(F)c(C3=CCN(C(=O)N4CCCC4)CC3)cc2NC(=O)c2c[nH]c(=O)cc2C(F)(F)F)C[C@H](C)N1C [Example 286, N-[4-fluoro-5-[1-(pyrrolidine-1-carbonyl)-3,6-dihydro-2H-pyridin-4-yl]-2-[(3R,5S)-3,4,5-trimethylpiperazin-1-yl]phenyl]-6-oxo-4-(trifluoromethyl)-1H-pyridine-3-carboxamide] |
| 1.01 nM | C[C@@H]1CN(c2cc(F)c(C3=CCN(C(=O)N(C)C)CC3)cc2NC(=O)c2c[nH]c(=O)cc2C(F)(F)F)C[C@H](C)N1C [Example 285, N-[5-[1-(dimethylcarbamoyl)-3,6-dihydro-2H-pyridin-4-yl]-4-fluoro-2-[(3R,5S)-3,4,5-trimethylpiperazin-1-yl]phenyl]-6-oxo-4-(trifluoromethyl)-1H-pyridine-3-carboxamide] |
| 0.938 nM | C[C@@H]1CN(c2cc(F)c(C3=CCN(c4ccccn4)CC3)cc2NC(=O)c2c[nH]c(=O)cc2C(F)(F)F)C[C@H](C)N1C [Example 270, N-[4-fluoro-5-(1-pyridin-2-yl-3,6-dihydro-2H-pyridin-4-yl)-2-[(3R,5S)-3,4,5-trimethylpiperazin-1-yl]phenyl]-6-oxo-4-(trifluoromethyl)-1H-pyridine-3-carboxamide] |
| 0.532 nM | C[C@@H]1CN(c2ccc(-c3cc(NC(=O)c4c[nH]c(=O)cc4C(F)(F)F)c(N4C[C@@H](C)N(C)[C@@H](C)C4)cc3F)cn2)C[C@H](C)O1 [Example 272, N-[4-fluoro-5-[6-[(2R,6S)-2,6-dimethylmorpholin-4-yl]pyridin-3-yl]-2-[(3S,5R)-3,4,5-trimethylpiperazin-1-yl]phenyl]-6-oxo-4-(trifluoromethyl)-1H-pyridine-3-carboxamide] |
| 0.499 nM | Cc1cnc(N2CC=C(c3cc(NC(=O)c4c[nH]c(=O)cc4C(F)(F)F)c(N4C[C@@H](C)N(C)[C@@H](C)C4)cc3F)CC2)nc1 [Example 271, N-[4-fluoro-5-[1-(5-methylpyrimidin-2-yl)-3,6-dihydro-2H-pyridin-4-yl]-2-[(3R,5S)-3,4,5-trimethylpiperazin-1-yl]phenyl]-6-oxo-4-(trifluoromethyl)-1H-pyridine-3-carboxamide] |
